27 compounds from patent US20090093485A1, “Novel Sulphonamide Derivatives as Glucocorticoid Receptor Modulators for the Treatment of Inflammatory Diseases” (ASTRAZENECA AB, priority 2004, published 2009) can be followed below.

By IC50 is commonly meant the concentration that inhibits the measured activity by half.

The assay concerns the target T1, recombinant human GR (Homo sapiens, UniProt P04150).
T1 construct: purchased Panvera/Invitrogen P2812 (kit P2893)
T1 sequence (P04150 1-777): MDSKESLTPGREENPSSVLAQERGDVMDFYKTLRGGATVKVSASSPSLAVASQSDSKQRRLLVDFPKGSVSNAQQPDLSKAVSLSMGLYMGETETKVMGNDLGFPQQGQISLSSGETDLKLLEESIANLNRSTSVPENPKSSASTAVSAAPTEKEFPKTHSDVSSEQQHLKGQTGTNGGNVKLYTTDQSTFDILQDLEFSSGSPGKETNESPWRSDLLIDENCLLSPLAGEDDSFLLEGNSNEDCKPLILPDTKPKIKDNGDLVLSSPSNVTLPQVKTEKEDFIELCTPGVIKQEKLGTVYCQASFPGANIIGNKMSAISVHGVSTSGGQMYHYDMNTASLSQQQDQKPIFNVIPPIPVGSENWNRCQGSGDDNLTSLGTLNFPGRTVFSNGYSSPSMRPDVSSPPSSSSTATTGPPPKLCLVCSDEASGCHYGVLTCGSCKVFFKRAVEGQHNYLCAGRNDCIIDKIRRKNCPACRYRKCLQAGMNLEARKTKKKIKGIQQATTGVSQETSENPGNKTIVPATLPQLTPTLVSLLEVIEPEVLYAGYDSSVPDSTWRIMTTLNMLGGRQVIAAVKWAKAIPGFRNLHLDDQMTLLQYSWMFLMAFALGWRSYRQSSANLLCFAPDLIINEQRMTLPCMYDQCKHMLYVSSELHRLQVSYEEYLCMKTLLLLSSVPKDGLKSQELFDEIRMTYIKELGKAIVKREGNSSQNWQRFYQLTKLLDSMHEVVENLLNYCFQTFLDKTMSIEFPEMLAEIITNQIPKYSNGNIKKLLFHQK
Description: Human Glucocorticoid Receptor (GR) Assay (fluorescence polarization, Panvera/Invitrogen kit). Conditions: GS Red tracer, incubated at room temperature for 2 hours, 100% control 10 μM Dexamethasone, read-out: GRhuFL_FP_v2 (GR-binders) IC50. The format is binding. The protocol: Human Glucocorticoid Receptor (GR) Assay
The assay is based on a commercial kit from Panvera/Invitrogen (Part number P2893). The assay technology is fluorescence polarization. The kit utilises recombinant human GR (Panvera, Part number P2812), a Fluoromone™ labelled tracer (GS Red, Panvera, Part number P2894) and a Stabilizing Peptide 10X (Panvera, Part number P2815). The GR and Stabilizing Peptide reagents are stored at −70° C. while the GS Red is stored at −20° C. Also included in the kit are 1M DTT (Panvera, Part number P2325, stored at −20° C.) and GR Screening buffer 10X (Panvera, Part number P2814, stored at −70° C. initially but once thawed stored at room temperature). Avoid repeated freeze/thaws for all reagents. The GR Screening buffer 10X comprises 100 mM potassium phosphate, 200 mM sodium molybdate, 1 mM EDTA and 20% DMSO.
Test compounds (1 μL) and controls (1 μL) in 100% DMSO were added to black polystyrene 384-well plates (Greiner low volume black flat-bottom, part number 784076). […] was 100% DMSO and 100% control was 10 μM Dexamethasone. Background solution (8 μL; assay buffer 10X, Stabilizing Peptide, DTT and ice cold MQ water) was added to the background wells. GS Red solution (7 μL; assay buffer 10X, Stabilizing Peptide, DTT, GS Red and ice cold water) was added to all wells except background wells. GR solution (7 μL; assay buffer 10X, Stabilizing Peptide, DTT, GR and ice cold water) was added to all wells. The plate was sealed and incubated in a dark at room temperature for 2 hours. The plate was read in an Analyst plate reader (LJL Biosystems/Molecular Devices Corporation) or other similar plate reader capable of recording fluorescence polarization (excitation wavelength 530 nm, emission wavelength […] and a dichroic mirror at 561 nm). The IC50 values were calculated using XLfit model 205.
In general terms: Fluorescence polarisation rises when a labelled molecule tumbles more slowly, as on binding a larger partner.
In the case of `O=[N+]([O-])c1cc(Cl)ccc1NCCCNS(=O)(=O)c1ccc2ccccc2c1` [Example 5], the 50% inhibitory concentration (IC50) is 640 nM.
In the case of `CCOc1ccc(S(=O)(=O)NCCc2ccc(S(N)(=O)=O)cc2)c2cccnc12` [Example 6], the IC50 was 700 nM.
The figure for `Cc1csc(NC(=O)CN(CC(C)C)S(=O)(=O)c2cccc3ccccc23)n1` [Example 7] is 700 nM.
The figure for `Cc1cc(C)c(S(=O)(=O)NCCc2c(C)[nH]c3ccc(C)cc23)c(C)c1` [Example 8] is 1200 nM; for `CCCN(c1nc(C)c(Cl)c(OC)n1)S(=O)(=O)c1ccc(C)cc1` [Example 9] it is 1600 nM; for `CC(C)c1cc(C(C)C)c(S(=O)(=O)NCc2ccncc2)c(C(C)C)c1` [Example 10] it is 600 nM.
Consider `COC(=O)c1c(C)oc2ccc(N(C(=O)c3ccncc3)S(=O)(=O)c3ccc(C)cc3C)cc12` [Example 11], for which the half-inhibitory concentration (IC50) worked out at 2200 nM.
As for `Cc1cc(NC(=O)CN(C2CCCCC2)S(=O)(=O)c2cccc3ccccc23)no1` [Example 12], the half-inhibitory concentration (IC50) was 6000 nM.
On to `Cc1cc(NC(=O)CN(CC2CCCCC2)S(=O)(=O)c2cccc3ccccc23)no1` [Example 13], for which the IC50 worked out at 2200 nM.
In the case of `C=CCN(c1nc(C)c(Cl)c(OC)n1)S(=O)(=O)c1ccc(C)cc1` [Example 14], the half-maximal inhibitory concentration (IC50) amounted to 1700 nM.
In the case of `CCNc1nc(NC(C)C)nc(OCCNS(=O)(=O)c2cc(C)ccc2C)n1` [Example 15], the IC50 is 6300 nM.
`CCCCOc1ccc(NS(=O)(=O)c2cccc3c(N(C)C)cccc23)cn1` [Example 16]: the IC50 is 4400 nM.
Consider `Cc1cc(Br)ccc1S(=O)(=O)NC(C)CCc1ccccc1` (stereo not drawn) [Example 19, 4-Bromo-2-methyl-N-(1-methyl-3-phenyl-propyl)-benzenesulfonamide], for which the IC50 was found to be 540 nM.
In the case of `Cc1cc(C)c(S(=O)(=O)NC(C)CCc2ccccc2)c(C)c1` (stereo not drawn) [Example 32, 2,4,6-Trimethyl-N-(1-methyl-3-phenyl-propyl)-benzenesulfonamide], the IC50 worked out at 90 nM.
For `Cc1cccc(C)c1OCC(C)NS(=O)(=O)c1cccc([N+](=O)[O-])c1` (stereo not drawn) [Example 34, N-[2-(2,6-Dimethyl-phenoxy)-1-methyl-ethyl]-3-nitro-benzenesulfonamide] the value was 3000 nM; for `Cc1cc(C)c(S(=O)(=O)N[C@@H](C)COc2cccc3cnccc23)c(C)c1` [Example 77, N-[(1S)-2-(5-Isoquinolinyloxy)-1-methylethyl]-2,4,6-trimethylbenzenesulfonamide], 17 nM.
For `Cc1cc(C)c(S(=O)(=O)N[C@@H](C)COc2cccc3[nH]ccc23)c(C)c1` [Example 78, N-[(1S)-2-(1H-Indol-4-yloxy)-1-methylethyl]-2,4,6-trimethylbenzenesulfonamide] the value was 23 nM; for `Cc1cc(C)c(S(=O)(=O)N[C@@H](C)COc2cccc3ncccc23)c(C)c1` [Example 79, 2,4,6-Trimethyl-N-[(1S)-1-methyl-2-(5-quinolinyloxy)ethyl]benzenesulfonamide], 140 nM; for `Cc1cc(C)c(S(=O)(=O)N[C@@H](C)COc2ccc3c(c2)OCO3)c(C)c1` [Example 80, N-[(1S)-2-(1,3-Benzodioxol-5-yloxy)-1-methylethyl]-2,4,6-trimethylbenzenesulfonamide], 230 nM.
Consider `Cc1cc(C)c(S(=O)(=O)N[C@@H](C)COc2ccnc3ccccc23)c(C)c1` [Example 81, 2,4,6-Trimethyl-N-[(1S)-1-methyl-2-(4-quinolinyloxy)ethyl]benzenesulfonamide], for which the IC50 was found to be 370 nM.
For `Cc1cc(C)c(S(=O)(=O)N[C@@H](C)COc2ncnc3ccccc23)c(C)c1` [Example 82, 2,4,6-Trimethyl-N-[(1S)-1-methyl-2-(4-quinazolinyloxy)ethyl]benzenesulfonamide] the value was 3400 nM.
For `Cc1cc(C)c(S(=O)(=O)N[C@@H](C)COc2cccc3cccnc23)c(C)c1` [Example 83, 2,4,6-Trimethyl-N-[(1S)-1-methyl-2-(8-quinolinyloxy)ethyl]benzenesulfonamide] the value was 8900 nM; for `Cc1cc(C)c(S(=O)(=O)N[C@@H](C)CNc2ccc(C)c3ncccc23)c(C)c1` [Example 123, 2,4,6-Trimethyl-N-{(1S)-1-methyl-2-[(8-methylquinolin-5-yl)amino]ethyl}-benzenesulfonamide], 18 nM.
For `Cc1cc(C)c(S(=O)(=O)N[C@@H](C)CNc2c(C)ccc3ncccc23)c(C)c1` [Example 124, 2,4,6-Trimethyl-N-{(1S)-1-methyl-2-[(6-methylquinolin-5-yl)amino]ethyl}-benzenesulfonamide] the value was 20 nM.
Turning to `Cc1cc(C)c(S(=O)(=O)N[C@@H](C)CNc2cccc3[nH]ncc23)c(C)c1` [Example 125, N-[(1S)-2-(1H-Indazol-4-ylamino)-1-methylethyl]-2,4,6-trimethylbenzenesulfonamide], the IC50 was determined as 42 nM.
On to `Cc1cc(C)c(S(=O)(=O)N[C@@H](C)CNc2cccc3ncccc23)c(C)c1` [Example 126, 2,4,6-Trimethyl-N-[(1S)-1-methyl-2-(quinolin-5-Ylamino)ethyl]benzenesulfonamide], for which the IC50 was 75 nM.
For `Cc1nn(-c2ccccc2)c(C)c1S(=O)(=O)N[C@@H](C)COc1cccc2cnccc12` [Example 160, N-[(1S)-2-(Isoquinolin-5-yloxy)-1-methylethyl]-3,5-dimethyl-1-phenyl-1-pyrazole-4-sulfonamide] the value was 96 nM.
